Results reported in patent publication US6545006B1, “Process for obtaining L-dihydroorotic acid and use thereof” (Aventis Pharma Deutschland GmbH, priority 1997, dated 2003).

Tests used:
[1] = biological target: T1, DHO-DH (Mus musculus, UniProt O35435); assay: Intracellular DHO-concentrations in A20.2.J cells incubated with A77 1726; format: cell-based; details: for DHO-Concentration (μg/ml ± SD) Experiment 1 (E10 B) / DHO-Concentration (μg/ml ± SD) Experiment 2 (E14): 5 μM A77 1726, 24 hours, n=3
T1 construct: endogenous in cells; host or cells: A20.2.J cells
T1 sequence (O35435 whole entry): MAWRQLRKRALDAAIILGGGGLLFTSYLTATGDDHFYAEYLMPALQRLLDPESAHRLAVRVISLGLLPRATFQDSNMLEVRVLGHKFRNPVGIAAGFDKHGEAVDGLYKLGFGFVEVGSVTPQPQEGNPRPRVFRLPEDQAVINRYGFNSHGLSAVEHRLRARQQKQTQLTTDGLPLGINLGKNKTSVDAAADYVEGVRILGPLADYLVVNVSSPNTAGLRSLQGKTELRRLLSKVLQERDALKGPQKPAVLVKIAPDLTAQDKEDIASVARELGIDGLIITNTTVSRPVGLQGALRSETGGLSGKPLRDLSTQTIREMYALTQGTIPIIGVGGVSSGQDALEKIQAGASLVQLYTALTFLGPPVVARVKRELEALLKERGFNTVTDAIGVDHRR
Method: Cell Culture: A20.2.J cells were cultured in serum free medium (37° C., 5% CO2) in an expansion culture at logarithmic cell growth. […] The percentage of dead cells were <8% (3).
Prepared cells were resuspended in a defined medium volume and cell density. Depending on expected DHO content, between 1-50 million cells were removed, pelleted (5 min, 350×g) and supernatant discarded. Cell were lysed, by adding 500 μl 1.2 M HCIO4. The lysates were transferred into 2 ml Eppendorf safe-lock-caps, and the protein precipitated by 2 min high speed centrifugation. The acidified lysates were completely removed, transferred into glass vials and, after addition of 500 μl chloroform, thoroughly mixed by 2 min vortexing. Cellular lipids were extracted following 10 min cold centrifugation (1502×g; 10° C.). The purified supernatants were collected in 2 ml Eppendorf caps for storage at −20° C. until high pressure liquid chromatography (HPLC) determination.
The chromatographic separation was performed as described in example 1.The range of the conductive detector was set to 10 μS. The analysis was performed at room temperature. The mobile phase was composed of 100 mM NaOH (A) and water (B). With that system the following gradient was produced:
(* all values extrapolated to 10×10^6 cells) (n=2).
The data are given as μg/ml DHO±SD extrapolated to ten million cells (0-4 h=n=2, 7 h=n=4).

[2] = A77 1726 concentrations in serum from rats treated with leflunomide; format: in vivo, rat; details: for A77 1726 concentrations in serum, Mean: leflunomide 10 mg/kg p.o. twice daily; for A77 1726 serum concentration: 3 hours after oral drug administration
Method: Animals: Male Wistar-Lewis rats (Mollegaard Breading Center Ltd. Ejby, DK) with a body weight of 160-200 g.
Adjuvant Arthritis: The disease was induced by injecting 0.1 ml Freund's adjuvant (6 mg Mycobacterium smegmatis suspended in 1 ml heavy, white paraffin oil (Merck, Darmstadt) into the root of Wistar-Lewis rat's tails. Pathological symptoms generally appear between 10 and 14 days after disease induction.
Drug Treatment: Drugs were suspended in 1% carboxymethylcellulose (COMC). […] (see table 12). At time point 0 h, 3 animals from both diseased and non-diseased groups were sacrificed to determine base-line levels. An additional 3 healthy and 3 diseased animals were treated with placebo (COMC alone) for 5 days.
Sampling: Three animals per group were sacrificed at each sampling time point. Serum and splenocytes taken at 3 h, 7 h, 27 h, 51 h, 75 h, and 99 h (see table 12). With the exception of the 7 h value, samples were taken three hours after the last drug application. The 7 h value was taken one hour after the second dosing. Samples from the placebo treated animals were taken at the 0 h (n=3) and 99 h (n=3) time points
Blood collected by heart puncture was stored for 30 min at 4° C. and then centrifuged for 10 min at 3000 rpm. Serum was separated and stored in Eppendorf-caps at −20° C. (3). Before HPLC analysis, the frozen serum was thawed and, in order to remove the proteins, 200 μl serum were added to a Microcon filter (model 10,code 42407, Amicon) and centrifuged for 30 min at 13 000 rpm.
The tubes were then mixed in a Vortex mixer and centrifuged at 2500 rpm (room temperature) for 10 minutes. For HPLC analysis, the supernatant (400 μl) was transferred to a vial and water (400 μl) added and mixed. The HPLC conditions were as follows: The hardware consisted of a TSP P2000 pump, a TSP AS1000 auto-sampler, a TSP SP4270 integrator, and a TSP UV100 UV-detector. Detection was at 292 nm wavelength. The mobile phase consisted of 650 ml methanol (CHROMASOLV), 2,42 g tetrabutylammoniumbromide, and 350 ml 0,05 M Ammoniumacetate. The flow rate was 0.5 ml/min A CHROMPACK Spherisorb ODS-2 10 cm column with a 1 cm reversed phase (R2) guard column was used. 100 μl was injected into the column and the running time was 7 min.

Compound: CC(O)=C(C#N)C(=O)Nc1ccc(C(F)(F)F)cc1 [A77 1726, N-(4-trifluoromethyl)-2-cyano-3-hydroxy-crotonamide]
- DHO-Concentration (μg/ml ± SD) Experiment 1 (E10 B) ([1]; 1 ×10^6 cells extracted): 14.08 ± 2.40 µg/mL
- DHO-Concentration (μg/ml ± SD) Experiment 2 (E14) ([1]; 1 ×10^6 cells extracted): 11.75 ± 0.23 µg/mL
- Concentration DHO (μg/ml) mean ± SD ([1]; 1 × 10^6 cells/ml, 1 h, 5 μM A77 1726, extrapolated to 10×10^6 cells, n=2): 6.25 ± 0.42 µg/mL
- Concentration DHO (μg/ml) mean ± SD ([1]; 1 × 10^6 cells/ml, 4 h, 5 μM A77 1726, extrapolated to 10×10^6 cells, n=2): 33.06 ± 2.26 µg/mL
- Concentration DHO (μg/ml) mean ± SD ([1]; 1 × 10^6 cells/ml, 7 h, 5 μM A77 1726, extrapolated to 10×10^6 cells, n=2): 60.07 ± 0.01 µg/mL
- incubation time after which detectable amounts of DHO could be determined ([1]; 1×10^6 cells/ml, independent of the drug concentration): 1 h
- incubation time with the greatest amount of DHO determined ([1]; 1×10^6 cells/ml, saturation afterwards): 6 h
- DHO-Concentration (μg/ml ± SD) Experiment 1 (E10 B) ([1]; 2 ×10^6 cells extracted): 19.51 ± 6.47 µg/mL
- DHO-Concentration (μg/ml ± SD) Experiment 2 (E14) ([1]; 2 ×10^6 cells extracted): 28.27 ± 0.79 µg/mL
- Concentration DHO (μg/ml) mean ± SD ([1]; 2 × 10^6 cells/ml, 1 h, 5 μM A77 1726, extrapolated to 10×10^6 cells, n=2): 5.47 ± 0.10 µg/mL
- Concentration DHO (μg/ml) mean ± SD ([1]; 2 × 10^6 cells/ml, 4 h, 5 μM A77 1726, extrapolated to 10×10^6 cells, n=2): 26.36 ± 0.42 µg/mL
- Concentration DHO (μg/ml) mean ± SD ([1]; 2 × 10^6 cells/ml, 7 h, 5 μM A77 1726, extrapolated to 10×10^6 cells, n=2): 42.31 ± 1.07 µg/mL
- Concentration DHO (μg/ml) mean ± SD ([1]; 3 × 10^6 cells/ml, 1 h, 5 μM A77 1726, extrapolated to 10×10^6 cells, n=2): 5.63 ± 0.19 µg/mL
- Concentration DHO (μg/ml) mean ± SD ([1]; 3 × 10^6 cells/ml, 4 h, 5 μM A77 1726, extrapolated to 10×10^6 cells, n=2): 19.39 ± 1.87 µg/mL
- Concentration DHO (μg/ml) mean ± SD ([1]; 3 × 10^6 cells/ml, 7 h, 5 μM A77 1726, extrapolated to 10×10^6 cells, n=2): 28.79 ± 0.34 µg/mL
- DHO-Concentration (μg/ml ± SD) Experiment 1 (E10 B) ([1]; 4 ×10^6 cells extracted): 53.58 ± 3.50 µg/mL
- DHO-Concentration (μg/ml ± SD) Experiment 2 (E14) ([1]; 4 ×10^6 cells extracted): 57.20 ± 2.76 µg/mL
- DHO-Concentration (μg/ml ± SD) Experiment 1 (E10 B) ([1]; 6 ×10^6 cells extracted): 73.01 ± 1.49 µg/mL
- DHO-Concentration (μg/ml ± SD) Experiment 2 (E14) ([1]; 6 ×10^6 cells extracted): 85.38 ± 2.33 µg/mL
- DHO-Concentration (μg/ml ± SD) Experiment 1 (E10 B) ([1]; 8 ×10^6 cells extracted): 99.89 ± 5.96 µg/mL
- DHO-Concentration (μg/ml ± SD) Experiment 2 (E14) ([1]; 8 ×10^6 cells extracted): 107.02 ± 3.47 µg/mL
- DHO-Concentration (μg/ml ± SD) Experiment 1 (E10 B) ([1]; 10 ×10^6 cells extracted): 113.37 ± 4.24 µg/mL
- DHO-Concentration (μg/ml ± SD) Experiment 2 (E14) ([1]; 10 ×10^6 cells extracted): 128.73 ± 1.95 µg/mL
- Concentration DHO (μg/ml) mean ± SD ([1]; A77 1726 5 μM, 0 h, one million cells/ml, extrapolated to ten million cells): 2.73 ± 0.10 µg/mL
- Concentration DHO (μg/ml) mean ± SD ([1]; A77 1726 5 μM, 1 h, one million cells/ml, extrapolated to ten million cells): 9.20 ± 0.09 µg/mL
- Concentration DHO (μg/ml) mean ± SD ([1]; A77 1726 5 μM, 2 h, one million cells/ml, extrapolated to ten million cells): 24.03 ± 1.15 µg/mL
- Concentration DHO (μg/ml) mean ± SD ([1]; A77 1726 5 μM, 4 h, one million cells/ml, extrapolated to ten million cells): 59.48 ± 0.72 µg/mL
- Concentration DHO (μg/ml) mean ± SD ([1]; A77 1726 5 μM, 7 h, one million cells/ml, extrapolated to ten million cells): 87.54 ± 1.58 µg/mL
- Concentration DHO (μg/ml) mean ± SD ([1]; A77 1726 10 μM, 0 h, one million cells/ml, extrapolated to ten million cells): 2.73 ± 0.10 µg/mL
- Concentration DHO (μg/ml) mean ± SD ([1]; A77 1726 10 μM, 1 h, one million cells/ml, extrapolated to ten million cells): 8.5 ± 0.39 µg/mL
- Concentration DHO (μg/ml) mean ± SD ([1]; A77 1726 10 μM, 2 h, one million cells/ml, extrapolated to ten million cells): 20.74 ± 1.43 µg/mL
- Concentration DHO (μg/ml) mean ± SD ([1]; A77 1726 10 μM, 4 h, one million cells/ml, extrapolated to ten million cells): 58.65 ± 2.06 µg/mL
- Concentration DHO (μg/ml) mean ± SD ([1]; A77 1726 10 μM, 7 h, one million cells/ml, extrapolated to ten million cells): 82.65 ± 4.50 µg/mL
- Concentration DHO (μg/ml) mean ± SD ([1]; A77 1726 25 μM, 0 h, one million cells/ml, extrapolated to ten million cells): 2.73 ± 0.08 µg/mL
- Concentration DHO (μg/ml) mean ± SD ([1]; A77 1726 25 μM, 1 h, one million cells/ml, extrapolated to ten million cells): 15.05 ± 0.26 µg/mL
- Concentration DHO (μg/ml) mean ± SD ([1]; A77 1726 25 μM, 2 h, one million cells/ml, extrapolated to ten million cells): 26.06 ± 0.20 µg/mL
- Concentration DHO (μg/ml) mean ± SD ([1]; A77 1726 25 μM, 4 h, one million cells/ml, extrapolated to ten million cells): 50.21 ± 1.54 µg/mL
- Concentration DHO (μg/ml) mean ± SD ([1]; A77 1726 25 μM, 7 h, one million cells/ml, extrapolated to ten million cells): 114.89 ± 3.61 µg/mL
- accumulation of L-DHO in A20.2.J tumor cells ([1]; incubation with A77 1726): rapid accumulation of L-DHO
- A77 1726 concentrations in serum, Mean ([2]; Adjuvant Diseased Rats, 3 h): 26.33 µg/mL
- A77 1726 concentrations in serum, Mean ([2]; Adjuvant Diseased Rats, 7 h): 42.3 µg/mL
- A77 1726 concentrations in serum, Mean ([2]; Adjuvant Diseased Rats, 27 h): 19.7 µg/mL
- A77 1726 concentrations in serum, Mean ([2]; Adjuvant Diseased Rats, 51 h): 9.2 µg/mL
- A77 1726 concentrations in serum, Mean ([2]; Adjuvant Diseased Rats, 75 h): 9.9 µg/mL
- A77 1726 concentrations in serum, Mean ([2]; Adjuvant Diseased Rats, 99 h): 12.2 µg/mL
- A77 1726 concentrations in serum, Mean ([2]; Non-Diseased Rats, 3 h): 30.7 µg/mL
- A77 1726 concentrations in serum, Mean ([2]; Non-Diseased Rats, 7 h): 47.9 µg/mL
- A77 1726 concentrations in serum, Mean ([2]; Non-Diseased Rats, 27 h): 9.6 µg/mL
- A77 1726 concentrations in serum, Mean ([2]; Non-Diseased Rats, 51 h): 7400 µg/mL
- A77 1726 concentrations in serum, Mean ([2]; Non-Diseased Rats, 99 h): 12.7 µg/mL
- A77 1726 serum concentration ([2]; adjuvant diseased rats): about 26 μg/ml
- time to reach the 7 to 12 μg/ml A77 1726 serum concentrations ([2]; diseased animals): 51 h
- time to reach the 7 to 12 μg/ml A77 1726 serum concentrations ([2]; non-diseased rats): 27 h
- A77 1726 serum concentration ([2]; non-diseased rats): ~31 µg/mL
- time of peak A77 1726 serum concentration ([2]; one hour after the second dosing): 7 h
